Reference: patent US20110230430A1, “SAPONIN EXTRACT FROM SAPONARIA SPP. AND USES THEREOF” (NATIONAL RESEARCH COUNCIL OF CANADA, priority 2008, published 2011)

What was measured:
PC-3 cells [1] = assay: Dual Sensor: MitoCasp Assay in PC-3 prostate cancer cells; format: cell-based, human
Source text: Techniques to assay enzymatic and signaling processes involved in apoptosis have been developed as standard protocols. One example of an early step in apoptosis, is the release of cytochrome C from mitochondria and the activation of caspase-3. Induction of the caspases (a series of cytosolic proteases) is one of the most consistently observed features of apoptosis. Caspases are a family of proteolytic enzymes that transmit the apoptotic signal using a proteolytic cascade. […] Caspases 3 and 7 are effector caspases, central to the caspase cascade pathways. In particular, caspase-3 plays a central role in the process. When caspases are activated, they cleave target proteins; one of the most important of these is poly-(ADP-ribose) polymerase (PARP), which is a protein located in the nucleus. Therefore, assays detecting release of cytochrome C, detecting caspase-3 activity and detecting PARP degradation are effective determinants of apoptosis. The loss of mitochondrial membrane potential is known to occur during apoptosis. To analyze mitochondrial membrane potential, a cationic dye may be used which accumulates in the mitochondria of healthy cells. Collapse of the mitochondrial membrane potential during apoptosis prevents the dye from accumulating in the mitochondria resulting in a decrease in fluorescent intensity that can be detected with flow cytometry. Dual Sensor: MitoCasp™ (Cell Technology) used herein in the Examples is an assay that measures caspase 3/7 activity and cells with decreased mitochondrial membrane potential. In this assay, caspase 3/7 activity is detected using a cell permeable carboxyfluorescein labeled caspase inhibitor, which binds covalently to active caspases 3 and 7. Cells that contain bound inhibitor are detected by an increase in fluorescence when samples are analyzed by flow cytometry.
(§1) PC-3 cells (ATCC #CRL-1435) were derived from a prostate adenocarcinoma (Kaighn et al., 1979). They were maintained in RPMI 1640 medium (Gibco) supplemented with 10% fetal bovine serum (Cansera), 100 U/mL penicillin, and 100 μg/mL streptomycin and 0.25 μg/mL amphotericin B. Cultures were maintained in medium at 37° C. with 5% CO2 and 100% relative humidity.
To harvest adherent cells, the existing medium was removed and cells were dissociated with 0.25% (w/v) trypsin-EDTA·4Na in Hank's Balanced Salt Solution (Gibco). To block the proteolytic action of the trypsin, the cells were resuspended in an excess of media containing fetal bovine serum. Cells were transferred to a 15 mL conical centrifuge tube and pelleted by centrifugation at 500×g for 5 min. Cell pellets were resuspended in media, and an aliquot of the cells were seeded into a new flask.
(§2) PC-3 cells were seeded in tissue culture flasks with regular growth medium and maintained under normal conditions. […] Following incubation under normal growth conditions for the specified time, cells were washed once with cold phosphate-buffered saline (PBS) (137 mM NaCl, 2.7 mM KCl, 4.3 mM Na2HPO4.7H2O, 1.4 mM KH2PO4) and harvested as previously described. Assays were carried out according to instructions given in kits. All Flow Cytometry was performed using a Coulter Epics XL (Beckman).
Following centrifugation at 500×g for 5 min, cell pellets were resuspended in PBS at 3.3×10^6 cells/mL. 300 μL cell suspension was mixed with 10 μL each of 30X Mitochondria Membrane Potential Dye and 30X Caspase 3/7 detection reagent. Following incubation for 60 min under normal growth conditions, cells were washed twice with 1× wash buffer and resuspended in 0.5 mL 1× wash buffer. Samples were analyzed by flow cytometry measuring the fluorescence emissions from 515 nm to 530 nm for caspase detection, and 574 nm to 600 nm for mitochondrial membrane potential detection.

PC-3 cells [2] = assay: Vybrant Apoptosis Assay Kit #2 in PC-3 cells; format: cell-based, human
Source text: (§3) Another apoptotic assay is the Annexin-V detection of extracellular phosphatidlyserine (PS). Normally, phosphatidylserine is localized on the inner membrane of the plasmalemma. However, during the early stages of apoptosis, externalization of PS takes place. Annexin-V is a calcium binding protein which binds to PS and can be observed with annexin-V-FITC staining by flow cytometry (Martin, et al., 1995). Alexa Fluor® 488-labeled Annexin V, which has a high affinity for PS, is used to detect apoptotic cells by binding to PS on the outer surface of the cell. Propidium iodide staining is used concurrently to detect dead cells. When cells are analyzed by flow cytometry apoptotic cells show Annexin V staining, late apoptotic cells show PI and Annexin V staining, and dead cells show only PI staining. The Vybrant® Apoptosis Assay Kit #2 (Molecular Probes™) used herein in the Examples is an assay that measures Annexin-V positive cells.
as §1, §2

MDA-MB-231 cells = assay: Vybrant Apoptosis Assay Kit #2 in MDA-MB-231 cells; format: cell-based, human
Source text: as §3
The MDA-MB-231 cell line (ATCC #HTB-26) was derived from the pleural effusion of a patient with a breast adenocarcinoma (Cailleau et al., 1974). The cells were maintained in RPMI 1640 (Gibco) supplemented with 10% fetal bovine serum (Camera), 100 U/mL penicillin, 100 μg/mL streptomycin and 0.25 μg/mL amphotericin B. Cultures were maintained in medium at 37° C. with 5% CO2 and 100% relative humidity.
MDA-MB-231 cells were treated with PC1448 and assayed for apoptosis as previously described for PC-3 cells.

[3] = Haemolytic properties of selected saponins; conditions: saponins purified to more than 75%
Source text: The haemolytic properties of the various saponins that have been purified to more than 75% have been examined and are provided in Table 39. Haemolytic properties are not directly related to anti-cancer or apoptosis inducing properties of saponins but may be related to toxicity and utility of the saponins for preparation of injectable formulations. Saponins most suitable for injectable formulation will be less haemolytic. QS21, a purified Quillaja saponaria saponin with known haemolytic activity is used as reference.

Segetoside H [PC1448]
Cells with caspase 3/7 activity (PC-3 cells [1]; 2.5 μM PC1448, 37 hr): 5.6% | Cells with decreased mitochondrial membrane potential (PC-3 cells [1]; 2.5 μM PC1448, 37 hr): 6.0% | Cells with caspase 3/7 activity (PC-3 cells [1]; 5.0 μM PC1448, 37 hr): 35.1% | Cells with decreased mitochondrial membrane potential (PC-3 cells [1]; 5.0 μM PC1448, 37 hr): 9.9% | Cells with caspase 3/7 activity (PC-3 cells [1]; 7 μM PC1448, 26 hr): 77.8% | Cells with decreased mitochondrial membrane potential (PC-3 cells [1]; 7 μM PC1448, 26 hr): 24.8% | Cells with caspase 3/7 activity (PC-3 cells [1]; 10 μM PC1448, 26 hr): 86.2% | Cells with decreased mitochondrial membrane potential (PC-3 cells [1]; 10 μM PC1448, 26 hr): 30.8% | Cells with caspase 3/7 activity (PC-3 cells [1]; 10.0 μM PC1448, 37 hr): 76.8% | Cells with decreased mitochondrial membrane potential (PC-3 cells [1]; 10.0 μM PC1448, 37 hr): 26.7% | Cells with caspase 3/7 activity (PC-3 cells [1]; 14 μM PC1448, 05 hr): 13.0% | Cells with decreased mitochondrial membrane potential (PC-3 cells [1]; 14 μM PC1448, 05 hr): 38.0% | Cells with caspase 3/7 activity (PC-3 cells [1]; 14 μM PC1448, 10 hr): 29.2% | Cells with decreased mitochondrial membrane potential (PC-3 cells [1]; 14 μM PC1448, 10 hr): 72.5% | Cells with caspase 3/7 activity (PC-3 cells [1]; 14 μM PC1448, 15 hr): 42.9% | Cells with decreased mitochondrial membrane potential (PC-3 cells [1]; 14 μM PC1448, 15 hr): 89.4% | Cells with caspase 3/7 activity (PC-3 cells [1]; 14 μM PC1448, 20 hr): 57.2% | Cells with decreased mitochondrial membrane potential (PC-3 cells [1]; 14 μM PC1448, 20 hr): 94.1% | Increase in cells with a decreased mitochondrial membrane potential vs untreated (PC-3 cells [1]; 14 μM PC1448, 20 hr (4.5% to 94.1%)): ~20 fold | Cells with caspase 3/7 activity (PC-3 cells [1]; 14 μM PC1448, 26 hr): 84.0% | Cells with decreased mitochondrial membrane potential (PC-3 cells [1]; 14 μM PC1448, 26 hr): 52.0% | Increase in cells with measurable caspase 3/7 activity vs untreated (PC-3 cells [1]; 14 μM PC1448, over the 20 hr exposure period): approximately a doubling | Cells with caspase 3/7 activity (PC-3 cells [1]; 15.0 μM PC1448, 37 hr): 72.9% | Cells with decreased mitochondrial membrane potential (PC-3 cells [1]; 15.0 μM PC1448, 37 hr): 32.3% | Cells with caspase 3/7 activity (PC-3 cells [1]; 17 μM PC1448, 26 hr): 77.7% | Cells with decreased mitochondrial membrane potential (PC-3 cells [1]; 17 μM PC1448, 26 hr): 41.9% | Concentration of greatest effect on apoptosis (PC-3 cells [1]; 37 hours): above 10 μM | Induction of apoptosis at concentrations as low as (PC-3 cells [1]; 37 hours): 5.0 µM | Concentration with the greatest change in cells with decreased mitochondrial membrane potential (PC-3 cells [1]; PC1448 7-17 μM, 26 hr): 14 µM | Concentration with the largest increase in caspase 3/7 activity (PC-3 cells [1]; PC1448 7-17 μM, 26 hr): 10 µM | Increase in caspase 3/7 activity vs untreated (PC-3 cells [1]; PC1448 7-17 μM, 26 hr, all treated cells): 9 fold | Annexin-V positive cells (PC-3 cells [2]; 14 μM PC1448, 06 hr): 12.4% | Annexin-V positive cells (PC-3 cells [2]; 14 μM PC1448, 16 hr): 28.3% | Annexin-V positive cells (PC-3 cells [2]; 14 μM PC1448, 24 hr): 34.7% | Increase in Annexin V positive cells vs untreated (PC-3 cells [2]; 14 μM PC1448, 24 hr): three fold | Increase in Annexin V positive cells vs untreated (MDA-MB-231 cells; 14 μM PC1448, 12 hours): 2.7 fold | Annexin-V positive cells (MDA-MB-231 cells; 14 μM PC1448, 12 hr): 46.3% | Annexin-V positive cells (MDA-MB-231 cells; 14 μM PC1448, 24 hr): 37.9% | Annexin-V positive cells (MDA-MB-231 cells; 14 μM PC1448, 48 hr): 37.9% | HD50 [3]: 13.8 µM

Segetoside I [PC1464]
Cells with caspase 3/7 activity (PC-3 cells [1]; 1.25 μM PC1464, 36 hr): 9.6% | Cells with decreased mitochondrial membrane potential (PC-3 cells [1]; 1.25 μM PC1464, 36 hr): 1.8% | Cells with caspase 3/7 activity (PC-3 cells [1]; 1.75 μM PC1464, 26 hr): 8.5% | Cells with decreased mitochondrial membrane potential (PC-3 cells [1]; 1.75 μM PC1464, 26 hr): 3.2% | Cells with caspase 3/7 activity (PC-3 cells [1]; 2.5 μM PC1464, 36 hr): 15.1% | Cells with decreased mitochondrial membrane potential (PC-3 cells [1]; 2.5 μM PC1464, 36 hr): 3.4% | Cells with caspase 3/7 activity (PC-3 cells [1]; 3.50 μM PC1464, 26 hr): 40.4% | Cells with decreased mitochondrial membrane potential (PC-3 cells [1]; 3.50 μM PC1464, 26 hr): 14.8% | Cells with caspase 3/7 activity (PC-3 cells [1]; 5.0 μM PC1464, 36 hr): 57.1% | Cells with decreased mitochondrial membrane potential (PC-3 cells [1]; 5.0 μM PC1464, 36 hr): 28.7% | Cells with caspase 3/7 activity (PC-3 cells [1]; 5.25 μM PC1464, 26 hr): 49.5% | Cells with decreased mitochondrial membrane potential (PC-3 cells [1]; 5.25 μM PC1464, 26 hr): 20.3% | Cells with caspase 3/7 activity (PC-3 cells [1]; 7 μM PC1464, 10 hr): 12.2% | Cells with decreased mitochondrial membrane potential (PC-3 cells [1]; 7 μM PC1464, 10 hr): 5.1% | Cells with caspase 3/7 activity (PC-3 cells [1]; 7 μM PC1464, 20 hr): 40.1% | Cells with decreased mitochondrial membrane potential (PC-3 cells [1]; 7 μM PC1464, 20 hr): 21.4% | Cells with caspase 3/7 activity (PC-3 cells [1]; 7.00 μM PC1464, 26 hr): 59.4% | Cells with decreased mitochondrial membrane potential (PC-3 cells [1]; 7.00 μM PC1464, 26 hr): 24.1% | Increase in cells with decreased mitochondrial membrane potential (PC-3 cells [1]; 7 μM PC1464, 30 hours): more than ten fold | Increase in number of cells with caspase 3/7 activity (PC-3 cells [1]; 7 μM PC1464, 30 hours): six fold | Cells with caspase 3/7 activity (PC-3 cells [1]; 7 μM PC1464, 30 hr): 54.6% | Cells with decreased mitochondrial membrane potential (PC-3 cells [1]; 7 μM PC1464, 30 hr): 51.2% | Cells with caspase 3/7 activity (PC-3 cells [1]; 10.0 μM PC1464, 36 hr): 59.6% | Cells with decreased mitochondrial membrane potential (PC-3 cells [1]; 10.0 μM PC1464, 36 hr): 43.2% | Concentration of greatest effect on apoptosis (PC-3 cells [1]; 36 hours): above 5 μM | Induction of apoptosis at concentrations as low as (PC-3 cells [1]; 36 hours): 2.5 µM | Concentrations with significant effect on induction of apoptosis (PC-3 cells [1]; PC1464 1.75-7 μM, 26 hour): ≥ 3.5 µM | Annexin-V positive cells (PC-3 cells [2]; 7 μM PC1464, 10 hr): 21.0% | Annexin-V positive cells (PC-3 cells [2]; 7 μM PC1464, 20 hr): 30.9% | Annexin-V positive cells (PC-3 cells [2]; 7 μM PC1464, 30 hr): 44.7% | Increase in Annexin V positive cells vs untreated (PC-3 cells [2]; 7 μM or 14 μM PC1464, 30 hr): three to six fold | Annexin-V positive cells (PC-3 cells [2]; 14 μM PC1464, 10 hr): 11.5% | Annexin-V positive cells (PC-3 cells [2]; 14 μM PC1464, 20 hr): 28.9% | Annexin-V positive cells (PC-3 cells [2]; 14 μM PC1464, 30 hr): 49.4% | Annexin-V positive cells (MDA-MB-231 cells; 7 μM PC1464, 12 hr): 28.8% | Annexin-V positive cells (MDA-MB-231 cells; 7 μM PC1464, 24 hr): 39.7% | Increase in Annexin V positive cells vs untreated (MDA-MB-231 cells; 7 μM PC1464, 36 hour): 3 fold | Annexin-V positive cells (MDA-MB-231 cells; 7 μM PC1464, 36 hr): 49.3% | HD50 [3]: 17.5 µM
